# From US7381824B2 (Agouron Pharmaceuticals, Inc., priority 2003, dated 2008)
# Experiments:
# [1] = tested on: human umbilical vein endothelial cells (HUVEC); assay: HUVEC+VEGF proliferation assay; type: cell-based; conditions: Homo sapiens; VEGF-stimulated HUVEC proliferation, MTT, 72 hours
# Method: HUVEC+VEGF Proliferation Assay
# This assay determines the ability of a test compound to inhibit the growth factor-stimulated proliferation of human umbilical vein endothelial cells (“HUVEC”). HUVEC cells (passage 3-4, Clonetics, Corp.) were thawed into EGM2 culture medium (Clonetics Corp) in T75 flasks. Fresh EGM2 medium was added to the flasks 24 hours later. Four or five days later, cells were exposed to another culture medium (F12K medium supplemented with 10% fetal bovine serum (FBS), […] endothelial cell growth supplement (ECGS), and 0.1 mg/mL heparin). Exponentially-growing HUVEC cells were used in experiments thereafter. Ten to twelve thousand HUVEC cells were plated in 96-well dishes in […] of rich, culture medium (described above). The cells were allowed to attach for 24 hours in this medium. The medium was then removed by aspiration and […] of starvation media (F12K+1% FBS) was added to each well. After 24 hours, […] of test agent dissolved in 1% DMSO in starvation medium or this vehicle alone was added into each treatment well; the final DMSO concentration was 0.1%. One hour later, […] of VEGF (30 ng/mL) in starvation media was added to all wells except those containing untreated controls; the final VEGF concentration was 6 ng/mL. Cellular proliferation was quantified 72 hours later by MTT dye reduction, at which time cells were exposed for 4 hours MTT (Promega Corp.). Dye reduction was stopped by addition of a stop solution (Promega Corp.) and absorbance at 595 nm was determined on a 96-well spectrophotometer plate reader.
# [2] = target: T1, human vascular endothelial growth factor receptor 2 (VEGF-R2) (Homo sapiens, UniProt P35968, DEL940-989/E990V); assay: VEGF-R2 coupled spectrophotometric assay (FLVK, unphosphorylated VEGF-R2D50); type: biochemical; conditions: unphosphorylated VEGF-R2D50 (FLVK)
# T1 construct: VEGF-R2D50 contains residues 806-939 and 990-1171; made in house; host or cells: baculovirus/insect cell system
# T1 sequence (P35968 with tags, fused parts or gaps DEL940-989/E990V limits assumed): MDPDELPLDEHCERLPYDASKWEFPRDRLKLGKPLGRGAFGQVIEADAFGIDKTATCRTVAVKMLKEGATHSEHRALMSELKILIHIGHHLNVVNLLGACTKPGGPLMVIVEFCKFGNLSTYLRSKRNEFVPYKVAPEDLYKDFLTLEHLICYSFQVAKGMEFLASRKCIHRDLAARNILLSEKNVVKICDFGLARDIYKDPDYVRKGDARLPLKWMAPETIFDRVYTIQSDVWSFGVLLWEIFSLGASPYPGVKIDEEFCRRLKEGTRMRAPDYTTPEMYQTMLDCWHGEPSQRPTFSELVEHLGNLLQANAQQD
# Description: This construct determines the ability of a test compound to inhibit tyrosine kinase activity. A construct (VEGF-R2D50) of the cytosolic domain of human vascular endothelial growth factor receptor 2 (VEGF-R2) lacking the 50 central residues of the 68 residues of the kinase insert domain was expressed in a baculovirus/insect cell system. Of the 1356 residues of full-length VEGF-R2, VEGF-R2D50 contains residues 806-939 and 990-1171, and also one point mutation (E990V) within the kinase insert domain relative to wild-type VEGF-R2. Autophosphorylation of the purified construct was performed by incubation of the enzyme at a concentration of […] in the presence of 3 mM ATP and 40 mM MgCl2 in 100 mM HEPES, pH 7.5, containing 5% glycerol and 5 mM DTT, at 4° C. for 2 h. […] See Parast et al., Biochemistry, 37, 16788-16801 (1998).
# VEGF-R2 Assay: Coupled Spectrophotometric (FLVK-P) Assay
# The production of ADP from ATP that accompanies phosphoryl transfer was coupled to oxidation of NADH using phosphoenolpyruvate (PEP) and a system having pyruvate kinase (PK) and lactic dehydrogenase (LDH). The oxidation of NADH was monitored by following the decrease of absorbance at 340 nm (e340=6.22 cm^−1 mM^−1) using a Beckman DU 650 spectrophotometer. Assay conditions for phosphorylated VEGF-R2D50 (indicated as FLVK-P in the tables below) were the following: 1 mM PEP; […] NADH; 50 units of LDH/mL; 20 units of PK/mL; 5 mM DTT; 5.1 mM poly(E4Y1); 1 mM ATP; and 25 mM MgCl2 in 200 mM HEPES, pH 7.5. Assay conditions for unphosphorylated VEGF-R2D50 (indicated as FLVK in the tables) were the following: 1 mM PEP; […] NADH; 50 units of LDH/mL; 20 units of PK/mL; 5 mM DTT; 20 mM poly(E4Y1); 3 mM ATP; and 60 mM MgCl2 and 2 mM MnCl2 in 200 mM HEPES, pH 7.5. Assays were initiated with 5 to 40 nM of enzyme. K1 values were determined by measuring enzyme activity in the presence of varying concentrations of test compounds. The percent inhibition at 50 nM (% inhibition @ 50 nM) was determined by linear least-squares regression analysis of absorbance as a function of time. The binding inhibitions were fitted to equation as described by Morrison. The data were analyzed using Enzyme Kinetic and Kaleidagraph software.
SMILES,IC50 [1],Ki [2]
"CNC(=O)c1c(C)oc2cc(Oc3ccnc4cc(I)ccc34)ccc12 [Example 6, 6-[(7-iodoquinolin-4-yl)oxy]-N,2-dimethyl-1-benzofuran-3-carboxamide]",1 to 10 nM,1 to 10 nM
"CNC(=O)c1c(C)oc2cc(Oc3ccnc4cc(-c5cccnc5)ccc34)ccc12 [Example 8, N-2-dimethyl-6-[(7-pyridin-3-ylquinolin-4-yl)oxy]-1-benzofuran-3-carboxamide]",< 1 nM,< 1 nM
"CNC(=O)c1c(C)oc2cc(Oc3ccnc4cc(-c5ccccn5)ccc34)ccc12 [Example 9, N-2-dimethyl-6-[(7-pyridin-2-ylquinolin-4-yl)oxy]-1-benzofuran-3-carboxamide]",1 to 10 nM,< 1 nM
"CNC(=O)c1c(C)sc2cc(Oc3ccnc4cc(-c5ccncc5)ccc34)ccc12 [Example 10, N-2-dimethyl-6-[(7-pyridin-4-ylquinolin-4-yl]oxy]-1-benzothiophene-3-carboxamide]",1 to 10 nM,1 to 10 nM
"CNC(=O)n1c(C)cc2cc(Nc3ccnc4cc(-c5ccncc5)ccc34)ccc21 [Example 11, N-2-dimethyl-5-[(7-pyridin-4-ylquinolin-4-yl]amino]-1H-indole-1-carboxamide]",< 1 nM,1 to 10 nM
"CNC(=O)c1c(C)oc2cc(Oc3ccnc4cc(-c5ccco5)ccc34)ccc12 [Example 13, 6-{[7-(2-furyl)quinolin-4-yl]oxy}-N,2-dimethyl-1-benzofuran-3-carboxamide]",1 to 10 nM,< 1 nM
"CNC(=O)c1c(C)sc2cc(Oc3ccnc4cc(-c5cccnc5)ccc34)ccc12 [Example 14, N2dimethyl-6-[(7-pyridin-3-ylquinolin-4-yl)oxy]-1-benzothiophene-3-carboxamide]",1 to 10 nM,1 to 10 nM
"CNC(=O)c1c(C)oc2cc(Oc3ccnc4cc(Br)ccc34)ccc12 [Example 19, 6-[(7-bromoquinolin-4-yl)oxy]-N,2-dimethy-1-benzofuran-3-carboxamide]",1 to 10 nM,1 to 10 nM
"CNC(=O)c1c(C)oc2cc(Oc3ccnc4cc(O)ccc34)ccc12 [Example 28, 6-[(7-hydroxyquinoline-4-yl)oxy]-N,2-dimethyl-1-benzofuran-3-carboxamide]",1 to 10 nM,
"CNC(=O)c1c(C)oc2cc(Oc3ccnc4cc(OC)ccc34)ccc12 [Example 29, 6-[(7-methoxyquinoline-4-yl)oxy]-N,2-dimethyl-1-benzofuran-3-carboxamide]",1 to 10 nM,< 1 nM
CNC(=O)n1c(C)cc2cc(Nc3ccnc4cc(-c5ccccn5)ccc34)ccc21 [Example 32],1 to 10 nM,
"CNC(=O)c1c(C)oc2cc(Oc3ccnc4cc(OCCN5CCCC5)ccc34)ccc12 [Example 35, N,2-dimethyl-6-{[7-(2-pyrrolidin-1-ylethoxy)quinolin-4-yl]oxy}-1-benzofuran-3-carboxamide]",< 1 nM,
"CCCCNC(=O)c1c(C)oc2cc(Oc3ccnc4cc(OC)ccc34)ccc12 [Example 39, N-butyl-6-[(7-methoxyquinolin-4-yl)oxy]-2-methyl-1-benzofuran-3-carboxamide]",< 1 nM,
"COc1ccc2c(Oc3ccc4c(C(=O)Nc5ccccn5)c(C)oc4c3)ccnc2c1 [Example 40, 6-[(7-methoxyquinolin-4-yl)oxy]-2-methyl-N-pyridin-2-yl-1-benzofuran-3-carboxamide]",< 1 nM,
"CCCCNC(=O)c1c(C)oc2cc(Oc3ccnc4cc(O)ccc34)ccc12 [Example 41, N-butyl-6-[(7-hydroxyquinolin-4-yl)oxy]-2-methyl-1-benzofuran-3-carboxamide]",1 to 10 nM,
"C=CCOc1ccc2c(Oc3ccc4c(C(=O)NC)c(C)oc4c3)ccnc2c1 [Example 42, 6-{[7-(allyloxy)quinolin-4-yl]oxy}-N,2-dimethyl-1-benzofuran-3-carboxamide]",< 1 nM,
"COc1ccc2c(Oc3ccc4c(C(=O)NC(C)C)c(C)oc4c3)ccnc2c1 [Example 43, N-isopropyl-6-[(7-methoxyquinolin-4-yl)oxy]-2-methyl-1-benzofuran-3-carboxamide]",1 to 10 nM,
"COc1ccc2c(Oc3ccc4c(C(=O)NCCCN5CCOCC5)c(C)sc4c3)ccnc2c1 [Example 62, 6-[(7-methoxyquinolin-4-yl)oxy]-2-methyl-N-(3-morpholin-4-ylpropyl)-1-benzothiophene-3-carboxamide]",> 10 nM,
"COc1ccc2c(Oc3ccc4c(C(=O)NC5CC5)c(C)oc4c3)ccnc2c1 [Example 63, N-cyclopropyl-6-[(7-methoxyquinolin-4-yl)oxy]-2-methyl-1-benzofuran-3-carboxamide]",< 1 nM,
"COc1ccc2c(Oc3ccc4c(C(=O)NCCCN5CCOCC5)c(C)oc4c3)ccnc2c1 [Example 64, 6-[(7-methoxyquinolin-4-yl)oxy]-2-methyl-N-(3-morpholin-4-ylpropyl)-1-benzofuran-3-carboxamide]",1 to 10 nM,
"Cc1oc2cc(Oc3ccnc4cc(OCCBr)ccc34)ccc2c1C(=O)NC1CC1 [Example 93, 6-{[7-(2-bromoethoxy)quinolin-4-yl]oxy}-N-cyclopropyl-2-methyl-1-benzofuran-3-carboxamide]",,< 1 nM
"CCN1CCN(CCOc2ccc3c(Oc4ccc5c(C(=O)NC6CC6)c(C)oc5c4)ccnc3c2)CC1 [Example 94, N-cyclopropyl-2-methyl-6-{7-[2-(4-ethyl-piperazin-1-yl)-ethoxy]quinolin-4-yloxy}-1-benzofuran-3-carboxamide]",,< 1 nM
"Cc1oc2cc(Oc3ccnc4cc(OCCNC(C)C)ccc34)ccc2c1C(=O)NC1CC1 [Example 95, N-cyclopropyl-6-({7-[2-(isopropylamino)ethoxy]quinolin-4-yl}oxy)-2-methyl-1-benzofuran-3-carboxamide]",,< 1 nM
"Cc1oc2cc(Oc3ccnc4cc(OCCNC5CC5)ccc34)ccc2c1C(=O)NC1CC1 [Example 96, N-cyclopropyl-6-({7-[2-(cyclopropylamino)ethoxy]quinolin-4-yl}oxy)-2-methyl-1-benzofuran-3-carboxamide]",,< 1 nM
"COCC(C)NCCOc1ccc2c(Oc3ccc4c(C(=O)NC5CC5)c(C)oc4c3)ccnc2c1 (centres unmarked) [Example 97, N-cyclopropyl-6-[(7-{2-[(2-methoxy-1-methylethyl)amino]ethoxy}quinolin-4-yl)oxy]-2-methyl-1-benzofuran-3-carboxamide]",,< 1 nM
Cc1oc2cc(Oc3ccnc4cc(OCCNC(C)(C)C)ccc34)ccc2c1C(=O)NC1CC1 [Example 98],,< 1 nM
Cc1oc2cc(Oc3ccnc4cc(OCCNC5CCC5)ccc34)ccc2c1C(=O)NC1CC1 [Example 100],1 to 10 nM,
"COc1ccc2c(Oc3ccc4c(C(=O)Nc5cc(C)cc(C)n5)c(C)oc4c3)ccnc2c1 [Example 108, N-(4,6-dimethylpyridin-2-yl)-6-[(7-methoxyquinolin-4-yl)oxy]-2-methyl-1-benzofuran-3-carboxamide]",1 to 10 nM,
"Cc1cc(C)nc(NC(=O)c2c(C)oc3cc(Oc4ccnc5cc(O)ccc45)ccc23)c1 [Example 109, N-(4,6-dimethylpyridin-2-yl)-6-[(7-hydroxyquinolin-4-yl)oxy]-2-methyl-1-benzofuran-3-carboxamide]",> 10 nM,
